Earlier results, collected in PMC9516332 (Frontiers in Oncology, 2022).
Where two headings read alike, the source gives them in different places.

How the values were obtained:
Conditions in all cases: cited from earlier work
[1] = molecular target: T1, panel of 255 wild-type kinases (Homo sapiens, UniProt O14920)
T1 sequence (O14920 1-756): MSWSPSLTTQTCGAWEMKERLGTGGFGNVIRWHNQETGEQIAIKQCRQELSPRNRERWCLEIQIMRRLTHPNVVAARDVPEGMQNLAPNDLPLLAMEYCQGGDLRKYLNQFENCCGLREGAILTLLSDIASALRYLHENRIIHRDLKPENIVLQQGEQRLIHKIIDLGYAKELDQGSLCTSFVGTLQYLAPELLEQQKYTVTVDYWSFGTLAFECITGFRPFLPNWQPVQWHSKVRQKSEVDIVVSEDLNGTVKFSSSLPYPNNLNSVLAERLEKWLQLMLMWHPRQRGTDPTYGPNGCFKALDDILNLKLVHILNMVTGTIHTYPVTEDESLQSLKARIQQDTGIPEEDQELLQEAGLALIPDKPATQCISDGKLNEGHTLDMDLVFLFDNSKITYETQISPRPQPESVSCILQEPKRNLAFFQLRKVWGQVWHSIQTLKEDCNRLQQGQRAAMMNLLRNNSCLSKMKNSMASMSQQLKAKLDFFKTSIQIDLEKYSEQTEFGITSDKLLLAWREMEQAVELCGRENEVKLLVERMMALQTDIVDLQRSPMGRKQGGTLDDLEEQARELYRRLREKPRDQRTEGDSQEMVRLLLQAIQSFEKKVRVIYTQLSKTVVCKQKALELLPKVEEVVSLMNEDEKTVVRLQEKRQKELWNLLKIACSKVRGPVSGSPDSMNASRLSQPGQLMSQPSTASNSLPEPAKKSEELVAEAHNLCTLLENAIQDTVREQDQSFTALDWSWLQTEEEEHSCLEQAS

[2] = molecular target: T2, panel of 255 wild-type kinases (Homo sapiens, UniProt O15530)
T2 sequence (O15530 1-556): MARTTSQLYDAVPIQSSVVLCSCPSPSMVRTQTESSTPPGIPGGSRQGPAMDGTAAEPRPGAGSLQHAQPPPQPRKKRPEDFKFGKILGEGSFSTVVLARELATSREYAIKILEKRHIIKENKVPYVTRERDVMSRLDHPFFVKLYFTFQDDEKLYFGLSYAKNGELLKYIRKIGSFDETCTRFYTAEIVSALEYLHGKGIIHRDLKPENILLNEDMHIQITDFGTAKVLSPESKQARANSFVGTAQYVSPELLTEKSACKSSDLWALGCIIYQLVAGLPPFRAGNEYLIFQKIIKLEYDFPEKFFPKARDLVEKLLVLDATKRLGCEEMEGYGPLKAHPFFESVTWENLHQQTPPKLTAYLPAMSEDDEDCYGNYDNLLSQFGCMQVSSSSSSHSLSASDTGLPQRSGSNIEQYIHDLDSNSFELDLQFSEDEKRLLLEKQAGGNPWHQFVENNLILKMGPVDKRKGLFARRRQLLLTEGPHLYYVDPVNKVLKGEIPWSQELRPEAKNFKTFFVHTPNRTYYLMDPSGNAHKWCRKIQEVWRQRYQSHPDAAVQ

[3] = molecular target: panel of 255 wild-type kinases (Homo sapiens, UniProt P23458)
[4] = molecular target: panel of 255 wild-type kinases (Homo sapiens, UniProt P51957)
[5] = molecular target: panel of 255 wild-type kinases (Homo sapiens, UniProt Q07912)
[6] = molecular target: panel of 255 wild-type kinases (Homo sapiens, UniProt Q8N568)
[7] = molecular target: T3, panel of 255 wild-type kinases (Homo sapiens, UniProt Q9NRA0)
T3 sequence (Q9NRA0 1-654): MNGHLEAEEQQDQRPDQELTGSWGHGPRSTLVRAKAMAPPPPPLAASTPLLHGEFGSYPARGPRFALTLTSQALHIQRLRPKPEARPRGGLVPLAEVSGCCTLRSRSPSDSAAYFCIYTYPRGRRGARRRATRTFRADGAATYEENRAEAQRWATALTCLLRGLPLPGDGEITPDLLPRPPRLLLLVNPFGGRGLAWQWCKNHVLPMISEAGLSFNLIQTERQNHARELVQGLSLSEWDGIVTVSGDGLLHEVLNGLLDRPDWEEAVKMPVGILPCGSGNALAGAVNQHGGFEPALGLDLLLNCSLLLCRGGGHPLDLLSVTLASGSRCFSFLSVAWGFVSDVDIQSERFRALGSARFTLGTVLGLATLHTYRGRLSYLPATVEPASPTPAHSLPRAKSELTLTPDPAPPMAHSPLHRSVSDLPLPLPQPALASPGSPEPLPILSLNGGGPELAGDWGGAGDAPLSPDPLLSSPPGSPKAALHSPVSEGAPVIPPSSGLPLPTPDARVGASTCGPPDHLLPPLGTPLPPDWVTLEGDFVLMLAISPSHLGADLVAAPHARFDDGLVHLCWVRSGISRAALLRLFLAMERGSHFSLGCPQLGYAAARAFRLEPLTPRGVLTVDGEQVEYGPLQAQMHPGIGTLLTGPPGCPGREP

[8] = molecular target: panel of 255 wild-type kinases (Homo sapiens, UniProt Q9P1W9)
[9] = molecular target: panel of 255 wild-type kinases (Homo sapiens, UniProt Q9UKE5)
[10] = kinase IKKβ, 1 µmol/L single concentration, ref DOI: 10.1158/1535-7163.MCT-18-0877
[11] = kinase PDK1, 1 µmol/L single concentration, ref DOI: 10.1158/1535-7163.MCT-18-0877
[12] = kinase JAK1, 1 µmol/L single concentration, ref DOI: 10.1158/1535-7163.MCT-18-0877
[13] = NEK4, 1 µmol/L single concentration, ref DOI: 10.1158/1535-7163.MCT-18-0877
[14] = ACK kinase assay, 1 µmol/L single concentration, ref DOI: 10.1158/1535-7163.MCT-18-0877
[15] = kinase DCAMKL2, 1 µmol/L single concentration, ref DOI: 10.1158/1535-7163.MCT-18-0877
[16] = kinase SPHK2, 1 µmol/L single concentration, ref DOI: 10.1158/1535-7163.MCT-18-0877
[17] = kinase PIM2, 1 µmol/L single concentration, ref DOI: 10.1158/1535-7163.MCT-18-0877
[18] = kinase TNIK, 1 µmol/L single concentration, ref DOI: 10.1158/1535-7163.MCT-18-0877
[19] = kinase IKKβ, 1 µmol/L single concentration, ref DOI: 10.1371/journal.pone.0092146
[20] = kinase PDK1, 1 µmol/L single concentration, ref DOI: 10.1371/journal.pone.0092146
[21] = kinase JAK1, 1 µmol/L single concentration, ref DOI: 10.1371/journal.pone.0092146
[22] = NEK4, 1 µmol/L single concentration, ref DOI: 10.1371/journal.pone.0092146
[23] = ACK kinase assay, 1 µmol/L single concentration, ref DOI: 10.1371/journal.pone.0092146
[24] = kinase DCAMKL2, 1 µmol/L single concentration, ref DOI: 10.1371/journal.pone.0092146
[25] = kinase SPHK2, 1 µmol/L single concentration, ref DOI: 10.1371/journal.pone.0092146
[26] = kinase PIM2, 1 µmol/L single concentration, ref DOI: 10.1371/journal.pone.0092146

Row | Compound | %-inhibition at 1 µmol/L, IKKβ [1, 10] [%] | %-inhibition at 1 µmol/L, PDK1 [2, 11] [%] | %-inhibition at 1 µmol/L, JAK1 [3, 12] [%] | %-inhibition, NEK4 [4, 13] [%] | %-inhibition ACK [5, 14] [%] | %-inhibition at 1 µmol/L, DCAMKL2 [6, 15] [%] | %-inhibition at 1 µmol/L, SPHK2 [7, 16] [%] | %-inhibition at 1 µmol/L, PIM2 [8, 17] [%] | %-inhibition at 1 µmol/L, TNIK [9, 18] [%] | also measured
1 | CC#CC(=O)N1CCC[C@H]1c1nc(-c2ccc(C(=O)Nc3ccccn3)cc2)c2c(N)nccn12 [acalabrutinib] | -7 | -1.47 | -13 | -4.76 | 14 | 4.63 | 7 | -17 | -0.812 | 
2 | CCc1cc2c(cc1N1CCC(N3CCOCC3)CC1)C(C)(C)c1[nH]c3cc(C#N)ccc3c1C2=O [alectinib] | -5 | -2.12 | -10 | -1.16 | 42 | 7 | 1.74 | 2.36 | 31 | 
3 | COc1cc(N2CCC(N3CCN(C)CC3)CC2)ccc1Nc1ncc(Cl)c(Nc2ccccc2P(C)(C)=O)n1 [brigatinib] |  |  |  |  |  |  |  |  |  | %-inhibition at 1 µmol/L, IKKβ [1]: -4.22%; %-inhibition at 1 µmol/L, PDK1 [2]: 4.31%; %-inhibition at 1 µmol/L, JAK1 [3]: 31%; %-inhibition, NEK4 [4]: 25%; %-inhibition ACK [5]: 104%; %-inhibition at 1 µmol/L, DCAMKL2 [6]: 52%; %-inhibition at 1 µmol/L, SPHK2 [7]: 11%; %-inhibition at 1 µmol/L, PIM2 [8]: -11%; %-inhibition at 1 µmol/L, TNIK [9]: 19%
4 | Cc1cc(Nc2ncc(Cl)c(Nc3ccccc3S(=O)(=O)C(C)C)n2)c(OC(C)C)cc1C1CCNCC1 [ceritinib] | -7 | -2.25 | -4.51 | -3.48 | 103 | 85 | 6.4 | -8 | 25 | 
5 | O=C(c1ccc(F)c(F)c1Nc1ccc(I)cc1F)N1CC(O)([C@@H]2CCCCN2)C1 [cobimetinib] | 1.29 | -1.65 | -8.53 | 5 | 7 | -9 | 11 | -4.45 | 1.06 | 
6 | C[C@@H](Oc1cc(-c2cnn(C3CCNCC3)c2)cnc1N)c1c(Cl)ccc(F)c1Cl [crizotinib] |  |  |  |  |  |  |  |  |  | %-inhibition at 1 µmol/L, IKKβ [1, 19]: -5%; %-inhibition at 1 µmol/L, PDK1 [2, 20]: -5%; %-inhibition at 1 µmol/L, JAK1 [3, 21]: 47%; %-inhibition, NEK4 [4, 22]: 4.57%; %-inhibition ACK [5, 23]: 56%; %-inhibition at 1 µmol/L, DCAMKL2 [6, 24]: 49%; %-inhibition at 1 µmol/L, SPHK2 [7, 25]: 8%; %-inhibition at 1 µmol/L, PIM2 [8, 26]: -5.28%; %-inhibition at 1 µmol/L, TNIK [9]: 11%
7 | CC(C)(C)c1nc(-c2cccc(NS(=O)(=O)c3c(F)cccc3F)c2F)c(-c2ccnc(N)n2)s1 [dabrafenib] |  |  |  |  |  |  |  |  |  | %-inhibition at 1 µmol/L, IKKβ [1, 19]: 3.71%; %-inhibition at 1 µmol/L, PDK1 [2, 20]: -5.38%; %-inhibition at 1 µmol/L, JAK1 [3, 21]: 5.7%; %-inhibition, NEK4 [4, 22]: 4%; %-inhibition ACK [5, 23]: 24%; %-inhibition at 1 µmol/L, DCAMKL2 [6, 24]: 19%; %-inhibition at 1 µmol/L, SPHK2 [7, 25]: -14%; %-inhibition at 1 µmol/L, PIM2 [8, 26]: 0.238%; %-inhibition at 1 µmol/L, TNIK ([9]; kinase TNIK, 1 µmol/L single concentration, ref DOI: 10.1371/journal.pone.0092146): 15%
8 | C=CC(=O)N1CCC[C@@H](n2nc(-c3ccc(Oc4ccccc4)cc3)c3c(N)ncnc32)C1 [ibrutinib] | -0.348 | -2 | -10 | 4.65 | 73 | -9 | 10 | -5 | -1.62 | 
9 | CO[C@@H]1[C@H](N(C)C(=O)c2ccccc2)C[C@H]2O[C@]1(C)n1c3ccccc3c3c4c(c5c6ccccc6n2c5c31)C(=O)NC4 [midostaurin] | -4 | 98 | 97 | 26 | 102 | 8 | 12 | -9 | 94 | 
10 | C=CC(=O)Nc1cc(Nc2nccc(-c3cn(C)c4ccccc34)n2)c(OC)cc1N(C)CCN(C)C [osimertinib] | -1.32 | 0.0271 | -6 | 6 | 100 | -7 | 15 | -5.45 | 84 | 
